{"source": "patent US20120101163A1", "about": "“COMPOSITION FOR INHIBITING CANCER METASTASIS” (TAIPEI MEDICAL UNIVERSITY, priority 2010, published 2012)", "key": {"[1]": {"tested_on": "matrix metalloproteinase-2", "assay": "Western blot analysis, MMP-2 protein expression in HT 1080 cells", "format": "cell-based, Human", "experimental": "(§1) HT 1080 cells with appropriate cell numbers were cultured in 60 mm culturing plates for 12 hours, respectively. After the cells were attached onto the bottom of the plate and formed a monolayer, the medium in the plate was removed. Fresh serum-free mediums with different concentrations of a test drug were added to the plates, respectively, and 100 nM PMA was added to each plate to induce the cells to express great quantities of matrix metalloproteinase-2 and matrix metalloproteinase-9, and the plates were placed in a temperature of 37° C. for 24 hours. A quantitatively cultured supernatant in each plate was centrifuged or protein was extracted from cells in each plate to be quantitated, and then an SDS-sample buffer containing 2-ME was added therein to form a mixture. The mixture was injected into a 10% SDS-polyacrylamide gel […] and then electrophoresed. After electrophoresis was completed, the proteins in the gel were transferred to a PVDF membrane. The PVDF membrane was equilibrated with gelatin-NET at room temperature for 30 minutes. […]"}, "[2]": {"tested_on": "matrix metalloproteinase-9", "assay": "Western blot analysis, MMP-9 protein expression in HT 1080 cells", "format": "cell-based, Human", "experimental": "as §1"}, "[3]": {"tested_on": "matrix metalloproteinase-9", "assay": "RT-PCR, MMP-9 gene expression in HT 1080 cells", "format": "cell-based, Human", "experimental": "7. RNA Extraction and Reverse Transcription-Polymerase Chain Reaction (RT-PCR)\nHT 1080 cells with appropriate cell numbers were cultured in 60 mm culturing plates for 6 hours, respectively. After the cells were attached onto the bottom of the plate and formed a monolayer, the medium in the plate was removed. Fresh serum free mediums with different concentrations of a test sample were added to the plates, respectively, and 100 nM PMA was added to each plate to induce the cells to express great quantities of matrix metalloproteinase-2 and matrix metalloproteinase-9, and the plates were placed in a temperature of 37° C. for 6 hours. After that, the total RNA of the cells were extracted with the TRIzol reagent and reverse transcripted by a reverse transcriptase to synthesize cDNA. The synthesize cDNA was used as a template to perform GADPH, matrix metalloproteinase-2 and matrix metalloproteinase-9 PCR amplifications."}, "[4]": {"tested_on": "HT 1080 cells", "assay": "Invasion assay (Matrigel transwell)", "format": "cell-based, Human", "experimental": "10. Invasion Assay (Lee et al., 2005; Huang et al., 2005; Park et al., 2005)\nHT 1080 cells were used to prepare a cell suspension with an appropriate concentration by a fresh serum free medium and than placed in each upper chamber of each transwell (BD Matrigel™ Invasion Chamber 24-Well Plate 8.0 Micron). Fresh serum containing mediums with different concentrations of a test drug were added to the lower chambers of the transwells, respectively. The transwells were placed in an incubator containing 5% CO2 at 37° C. for 18 hours. After that, the medium in the upper chamber was removed and cells on the upper surface of the membrane of the transwell were wiped by a cotton swab. Finally, the cells were fixed and stained. The calculation for the invasion rate of the cells was:\nNe: Numbers of cells crossing the membrane Nc: Numbers of total cells"}, "[5]": {"tested_on": "human umbilical vein endothelial cells", "assay": "Tube formation assay (angiogenesis)", "format": "cell-based", "experimental": "13. Tube Formation Assay (Malinda et al., 1999)\n1μ-Slide Angiogenesis ibiTreat chambers were coated with 10 μl Matrigel™ Mixtrix and placed in an incubator at 37° C. for 1 hour. 40 μl of a 3×10^5 cells/ml cell suspension was added to each chamber and left still for 20 minutes to let the cells attach to the chamber. After that, the medium in each chamber was removed. Fresh mediums with different concentrations of a test drug were added to the chambers, respectively and placed in an incubator at 37° C. After 18 hours, the angiogenesis appearance in each chamber was observed and photographed for recording."}, "[6]": {"conditions": "0.4, 0.8, 1.2, and 1.6, 24 hours, Western blotting"}, "[7]": {"conditions": "about 0.1-2 mM, stated as embodiment, 'and/or' MMP-2"}}, "data": [{"smiles": "NC(CCC(=O)NO)C(=O)O", "note": "[DH, L-Glutamic acid γ-hydroxamate]", "values": [{"measurement": "protein expression amount of matrix metalloproteinase-2 secreted out of and left in HT 1080 cells", "setting": "[1]; [6]", "result": "all decreased"}, {"measurement": "inhibition rate to the protein expression amount of metalloproteinase-2 of a cancer cell", "setting": "[1]; about 0.1-2 mM, stated as embodiment, 'and/or' MMP-9", "result": "40-90%"}, {"measurement": "protein expression amount of matrix metalloproteinase-9 secreted out of and left in HT 1080 cells", "setting": "[2]; [6]", "result": "all decreased"}, {"measurement": "inhibition rate to the protein expression amount of matrix metalloproteinase-9 of a cancer cell", "setting": "[2]; [7]", "result": "40-90%"}, {"measurement": "gene expression (mRNA) of matrix metalloproteinase-9", "setting": "[3]; HT 1080 cells, 0.4, 0.8, 1.2, and 1.6, 6 hours, RT-PCR", "result": "decreased"}, {"measurement": "inhibition rate to the gene transcriptional expression of matrix metalloproteinase-9 of a cancer cell", "setting": "[3]; [7]", "result": "20-80%"}, {"measurement": "IC50", "setting": "[4]; Homo sapiens, HT-1080, 0.8, 1.6 and 2.4 mM, 18 hours, read-out: IC50 HT 1080 crossing membrane to the lower chamber (invasion)", "result": 1.26, "unit": "mM"}, {"measurement": "inhibition rate to cancer cell invasion", "setting": "[4]; about 0.1-3 mM, stated as embodiment", "result": "40-85%"}, {"measurement": "inhibition rate to angiogenesis", "setting": "[5]; about 0.1-1.5 mM, stated as embodiment", "result": "10-90%"}, {"measurement": "angiogenesis compared with the control group", "setting": "[5]; increasing concentrations", "result": "significantly inhibited"}]}]}
